Reference: ChEMBL document CHEMBL1135763, “Discovery of aminothiazole inhibitors of cyclin-dependent kinase 2: synthesis, X-ray crystallographic analysis, and biological activities” (J Med Chem, 2002)

Key:
[1] = Plasma clearance at a dose of 10 mg/kg intravenous administration in mice.; type: ADME, organism-based; set-up: dose 10 mg/kg, route intravenous; settings: mouse
[2] = MRT value at a dose of 10 mg/kg peroral administration in mice.; type: ADME, organism-based; set-up: dose 10 mg/kg, route oral; settings: mouse, in vivo, po
[3] = At a dose 50 mg/kg (114 umol/kg) was administered intraperitoneally to mice and was evaluated for half life (T1/2); type: ADME, organism-based; set-up: dose 50 mg/kg, route intraperitoneal; settings: mouse, in vivo, ip
[4] = target: Protein kinase C alpha type (Homo sapiens, UniProt P17252); assay: Inhibition of Protein kinase C alpha
[5] = MRT value at a dose of 10 mg/kg intravenous administration in mice.; type: ADME, organism-based; set-up: dose 10 mg/kg, route intravenous; settings: mouse, in vivo
Mus musculus [6] = assay: At a dose 50 mg/kg (114 umol/kg) was administered intraperitoneally to mice and was evaluated for MRT; type: functional, organism-based; set-up: dose 50 mg/kg
P388 = assay: […] antitumor activity against P388 murine leukemia at 7.5 mg/kg i.p. /qd x7 and %T/C; type: functional, Mus musculus; settings: route intraperitoneal
[7] = target: Protein kinase C epsilon type (Homo sapiens, UniProt Q02156); assay: Inhibition of Protein kinase C epsilon
[8] = target: Protein kinase C zeta (Homo sapiens) (UniProt Q05513); assay: Inhibition of Protein kinase C zeta
[9] = Inhibition of I kappa-B kinase
[10] = Tmax value at a dose of 10 mg/kg intravenous administration in mice.; type: ADME, organism-based; set-up: dose 10 mg/kg, route intravenous; settings: mouse, in vivo
[11] = target: T1, Tyrosine-protein kinase ITK/TSK (Homo sapiens, UniProt Q08881); assay: Inhibition of tyrosine kinase EMT
T1 sequence (Q08881 whole entry): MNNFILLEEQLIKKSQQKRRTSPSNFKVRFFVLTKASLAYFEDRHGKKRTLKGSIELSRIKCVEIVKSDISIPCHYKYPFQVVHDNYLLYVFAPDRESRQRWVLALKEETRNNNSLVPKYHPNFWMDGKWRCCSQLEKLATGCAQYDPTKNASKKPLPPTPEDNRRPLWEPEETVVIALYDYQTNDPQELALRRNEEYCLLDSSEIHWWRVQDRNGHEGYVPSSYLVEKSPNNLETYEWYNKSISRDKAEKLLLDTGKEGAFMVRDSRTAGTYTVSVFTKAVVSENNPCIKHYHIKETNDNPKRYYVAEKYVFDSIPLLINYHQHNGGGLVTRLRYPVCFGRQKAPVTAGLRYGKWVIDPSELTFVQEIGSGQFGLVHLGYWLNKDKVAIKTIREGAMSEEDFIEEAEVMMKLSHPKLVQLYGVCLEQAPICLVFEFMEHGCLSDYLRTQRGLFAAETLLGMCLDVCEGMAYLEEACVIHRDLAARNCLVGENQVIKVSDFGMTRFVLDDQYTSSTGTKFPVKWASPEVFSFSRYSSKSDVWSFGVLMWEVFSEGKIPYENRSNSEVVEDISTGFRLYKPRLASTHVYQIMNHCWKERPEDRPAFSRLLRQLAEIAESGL

Mus musculus [12] = assay: AUC total value at a dose of 10 mg/kg peroral administration in mice.; type: ADME, organism-based, Plasma; set-up: dose 10 mg/kg, route oral; settings: in vivo, po
Homo sapiens [13] = species: Homo sapiens; assay: Metabolic rate in human; type: ADME
[14] = At a dose 50 mg/kg (114 umol/kg) was administered intraperitoneally to mice and was evaluated for T max; type: ADME, organism-based; set-up: dose 50 mg/kg, route intraperitoneal; settings: mouse, in vivo, ip
[15] = At a dose 50 mg/kg (114 umol/kg) was administered intraperitoneally to mice and was evaluated for Cmax; type: ADME, organism-based; set-up: dose 50 mg/kg, route intraperitoneal; settings: mouse, in vivo, ip
[16] = Half life at a dose of 10 mg/kg intravenous administration in mice.; type: ADME, organism-based; set-up: dose 10 mg/kg, route intravenous; settings: mouse, in vivo
[17] = target: Receptor tyrosine-protein kinase erbB-2 (Homo sapiens, UniProt P04626); assay: Inhibition of HER2 kinase
Sequence of Receptor tyrosine-protein kinase erbB-2 (P04626 whole entry): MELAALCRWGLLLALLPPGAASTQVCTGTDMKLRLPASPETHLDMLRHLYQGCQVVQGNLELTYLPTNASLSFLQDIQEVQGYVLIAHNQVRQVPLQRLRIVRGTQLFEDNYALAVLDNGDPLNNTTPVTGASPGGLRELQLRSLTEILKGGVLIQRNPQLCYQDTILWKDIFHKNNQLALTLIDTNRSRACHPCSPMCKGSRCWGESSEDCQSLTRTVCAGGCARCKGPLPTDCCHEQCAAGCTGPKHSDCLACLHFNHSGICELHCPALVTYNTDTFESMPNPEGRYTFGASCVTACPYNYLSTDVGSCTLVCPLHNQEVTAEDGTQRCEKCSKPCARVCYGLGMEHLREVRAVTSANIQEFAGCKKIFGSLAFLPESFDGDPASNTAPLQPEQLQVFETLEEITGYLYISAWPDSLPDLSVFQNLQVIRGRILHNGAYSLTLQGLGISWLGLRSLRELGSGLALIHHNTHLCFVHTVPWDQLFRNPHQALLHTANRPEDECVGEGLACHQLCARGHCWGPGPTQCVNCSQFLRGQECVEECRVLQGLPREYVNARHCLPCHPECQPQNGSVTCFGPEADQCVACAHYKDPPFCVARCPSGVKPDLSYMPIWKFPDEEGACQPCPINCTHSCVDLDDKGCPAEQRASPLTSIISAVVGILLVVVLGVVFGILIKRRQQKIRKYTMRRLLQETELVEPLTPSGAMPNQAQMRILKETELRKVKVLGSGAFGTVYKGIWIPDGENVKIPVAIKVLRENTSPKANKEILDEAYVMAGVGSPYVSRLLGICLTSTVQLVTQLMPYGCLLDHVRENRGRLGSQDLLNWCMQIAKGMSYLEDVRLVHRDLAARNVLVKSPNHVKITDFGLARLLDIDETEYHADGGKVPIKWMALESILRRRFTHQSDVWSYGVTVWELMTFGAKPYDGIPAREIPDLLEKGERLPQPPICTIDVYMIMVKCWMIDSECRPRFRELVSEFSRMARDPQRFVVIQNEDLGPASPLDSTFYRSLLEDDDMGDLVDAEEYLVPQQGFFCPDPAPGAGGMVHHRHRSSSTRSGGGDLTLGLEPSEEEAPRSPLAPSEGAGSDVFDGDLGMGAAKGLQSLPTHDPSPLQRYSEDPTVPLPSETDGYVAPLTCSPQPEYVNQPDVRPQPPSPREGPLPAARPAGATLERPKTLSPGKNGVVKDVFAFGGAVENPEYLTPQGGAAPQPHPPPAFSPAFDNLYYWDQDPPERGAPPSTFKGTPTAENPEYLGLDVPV

[18] = Cmax value at a dose of 10 mg/kg peroral administration in mice.; type: ADME, organism-based; set-up: dose 10 mg/kg, route oral; settings: mouse, in vivo, po
[19] = Cmax value at a dose of 10 mg/kg intravenous administration in mice.; type: ADME, organism-based; set-up: dose 10 mg/kg, route intravenous; settings: mouse, in vivo
[20] = Vss value at a dose of 10 mg/kg intravenous administration in mice.; type: ADME, organism-based; set-up: dose 10 mg/kg, route intravenous; settings: mouse, in vivo, read-out: Vss
[21] = target: Tyrosine-protein kinase ZAP-70 (Homo sapiens, UniProt P43403); assay: Inhibition of Zeta-chain (TCR) associated protein kinase 70 kDa (ZAP70)
Sequence of Tyrosine-protein kinase ZAP-70 (P43403 whole entry): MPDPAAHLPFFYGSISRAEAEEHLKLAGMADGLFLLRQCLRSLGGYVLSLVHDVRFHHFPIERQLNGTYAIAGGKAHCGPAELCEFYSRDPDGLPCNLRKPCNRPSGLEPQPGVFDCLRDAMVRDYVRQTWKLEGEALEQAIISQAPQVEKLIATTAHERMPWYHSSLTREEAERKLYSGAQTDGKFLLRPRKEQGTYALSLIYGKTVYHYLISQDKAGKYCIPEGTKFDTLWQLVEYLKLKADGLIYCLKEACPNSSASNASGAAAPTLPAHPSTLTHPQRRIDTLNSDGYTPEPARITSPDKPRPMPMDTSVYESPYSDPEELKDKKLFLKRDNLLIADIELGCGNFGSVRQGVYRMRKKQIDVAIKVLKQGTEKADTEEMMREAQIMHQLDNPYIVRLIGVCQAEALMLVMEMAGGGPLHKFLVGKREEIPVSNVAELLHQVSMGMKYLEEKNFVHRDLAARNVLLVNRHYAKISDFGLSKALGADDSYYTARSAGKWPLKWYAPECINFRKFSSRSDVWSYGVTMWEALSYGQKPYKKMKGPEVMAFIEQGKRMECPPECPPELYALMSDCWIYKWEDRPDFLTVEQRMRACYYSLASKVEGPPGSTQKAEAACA

[22] = Tmax value at a dose of 10 mg/kg peroral administration in mice.; type: ADME, organism-based; set-up: dose 10 mg/kg, route oral; settings: mouse, in vivo, po
[23] = target: Protein kinase C delta type (Homo sapiens, UniProt Q05655); assay: Inhibition of Protein kinase C delta
Sequence of Protein kinase C delta type (Q05655 whole entry): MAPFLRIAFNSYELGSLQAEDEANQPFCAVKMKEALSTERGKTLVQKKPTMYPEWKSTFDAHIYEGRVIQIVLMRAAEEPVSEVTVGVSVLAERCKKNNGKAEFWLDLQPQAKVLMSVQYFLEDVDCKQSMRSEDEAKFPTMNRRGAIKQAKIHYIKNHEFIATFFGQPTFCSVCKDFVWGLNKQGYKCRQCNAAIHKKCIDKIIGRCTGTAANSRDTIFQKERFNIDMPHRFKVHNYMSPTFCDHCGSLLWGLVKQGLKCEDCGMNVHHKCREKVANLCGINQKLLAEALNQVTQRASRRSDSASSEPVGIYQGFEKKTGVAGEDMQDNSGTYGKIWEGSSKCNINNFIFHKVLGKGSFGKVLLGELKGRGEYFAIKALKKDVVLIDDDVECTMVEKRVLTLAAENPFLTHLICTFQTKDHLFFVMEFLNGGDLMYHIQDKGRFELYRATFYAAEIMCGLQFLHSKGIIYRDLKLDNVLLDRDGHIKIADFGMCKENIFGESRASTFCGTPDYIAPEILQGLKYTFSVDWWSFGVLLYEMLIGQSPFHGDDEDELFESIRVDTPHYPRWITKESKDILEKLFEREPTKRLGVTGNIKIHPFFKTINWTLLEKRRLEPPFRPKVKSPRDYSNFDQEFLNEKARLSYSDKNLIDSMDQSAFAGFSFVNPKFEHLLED

[24] = target: Cyclin-dependent kinase 4/cyclin D1 (Homo sapiens, UniProt P11802); assay: Inhibitory activity against baculovirus expressed Cyclin dependent kinase 4-cyclinD1; type: protein-complex assay
Sequence of Cyclin-dependent kinase 4/cyclin D1 (P11802 whole entry): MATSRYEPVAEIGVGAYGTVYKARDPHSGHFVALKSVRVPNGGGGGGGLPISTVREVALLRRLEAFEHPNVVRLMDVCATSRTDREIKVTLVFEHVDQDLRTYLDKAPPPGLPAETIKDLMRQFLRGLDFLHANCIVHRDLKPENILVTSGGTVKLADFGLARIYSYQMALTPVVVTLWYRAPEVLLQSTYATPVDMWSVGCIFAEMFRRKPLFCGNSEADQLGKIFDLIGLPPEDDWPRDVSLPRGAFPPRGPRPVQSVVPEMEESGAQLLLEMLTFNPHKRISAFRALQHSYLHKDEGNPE
Sequence of Cyclin-dependent kinase 4/cyclin D1 (P24385 whole entry, further chain): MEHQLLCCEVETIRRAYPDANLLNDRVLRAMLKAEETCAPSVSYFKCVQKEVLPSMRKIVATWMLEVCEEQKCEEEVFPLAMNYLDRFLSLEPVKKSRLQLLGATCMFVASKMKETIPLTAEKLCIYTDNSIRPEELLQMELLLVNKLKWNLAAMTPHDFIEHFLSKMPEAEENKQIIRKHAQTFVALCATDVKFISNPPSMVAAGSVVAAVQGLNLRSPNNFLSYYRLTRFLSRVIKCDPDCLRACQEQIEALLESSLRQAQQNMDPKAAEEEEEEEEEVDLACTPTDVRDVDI

Mus musculus [25] = assay: At a dose 50 mg/kg (114 umol/kg) was administered intraperitoneally to mice and was evaluated for area under curve (AUCtot); type: ADME, organism-based; set-up: time AUCmax, dose 50 mg/kg, route intraperitoneal; settings: in vivo, ip
[26] = Inhibition of Insulin-like growth factor receptor
A2780 = assay: […] antitumor activity against A2780 human ovarian carcinoma at 7.5 mg/kg i.p. /qd x7; type: functional; settings: route intraperitoneal
Mus musculus [27] = species: Mus musculus; assay: Metabolic rate in mouse; type: ADME
[28] = target: Protein kinase C beta type (Homo sapiens, UniProt P05771); assay: Inhibition of Protein kinase C beta
Sequence of Protein kinase C beta type (P05771 whole entry): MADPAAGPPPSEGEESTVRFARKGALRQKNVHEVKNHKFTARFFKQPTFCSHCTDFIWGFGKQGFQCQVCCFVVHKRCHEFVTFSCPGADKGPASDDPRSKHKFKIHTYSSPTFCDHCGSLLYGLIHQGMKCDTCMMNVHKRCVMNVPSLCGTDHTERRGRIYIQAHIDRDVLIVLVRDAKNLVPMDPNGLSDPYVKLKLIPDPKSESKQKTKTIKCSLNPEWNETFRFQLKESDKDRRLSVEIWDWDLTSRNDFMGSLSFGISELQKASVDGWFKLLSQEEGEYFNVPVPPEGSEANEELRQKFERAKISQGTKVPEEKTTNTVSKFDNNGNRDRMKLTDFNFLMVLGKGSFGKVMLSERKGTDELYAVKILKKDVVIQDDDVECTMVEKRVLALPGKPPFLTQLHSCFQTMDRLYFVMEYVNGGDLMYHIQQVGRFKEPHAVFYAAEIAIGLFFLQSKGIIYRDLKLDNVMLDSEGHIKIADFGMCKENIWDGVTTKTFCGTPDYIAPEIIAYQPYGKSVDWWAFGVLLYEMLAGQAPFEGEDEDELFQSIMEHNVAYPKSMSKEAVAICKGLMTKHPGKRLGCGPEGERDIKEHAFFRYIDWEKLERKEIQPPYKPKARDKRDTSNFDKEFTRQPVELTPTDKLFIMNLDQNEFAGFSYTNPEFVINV

Homo sapiens [29] = species: Homo sapiens; assay: Percent of serum binding in human; type: functional
[30] = Bioavailability at a dose of 10 mg/kg peroral administration in mice.; type: ADME, organism-based; settings: mouse, in vivo, po, read-out: Bioavailabiility
Mus musculus [31] = species: Mus musculus; assay: Percent of serum binding in mouse; type: functional
[32] = Half life at a dose of 10 mg/kg peroral administration in mice.; type: ADME, organism-based; set-up: dose 10 mg/kg, route oral; settings: mouse, in vivo, po
Mus musculus [33] = assay: AUC total value at a dose of 10 mg/kg intravenous administration in mice.; type: ADME, organism-based, Plasma; set-up: dose 10 mg/kg, route intravenous; settings: in vivo

## CC(C)(C)c1cnc(CSc2cnc(NC(=O)Cc3ccc(CNC(CO)CO)cc3)s2)o1
[1]
  clearance: 67 mL/min/kg
[2]
  MRT: 4.1 h
[3]
  half-life: 1.8 h
[4]
  IC50: > 45 µM
[5]
  MRT: 1.8 h
Mus musculus [6]
  MRT: 2.9 h
P388
  T/C: 140%
[7]
  IC50: 5.6 µM
[8]
  IC50: 35 µM
[9]
  IC50: 28 µM
[10]
  Tmax: 4.8 min
[11]
  IC50: 29 µM
Mus musculus [12]
  AUC total: 1.2 µM·h
Homo sapiens [13]
  Rate: 0.21 nM min-1 (mg of protein)-1
[14]
  Tmax: 1 h
[15]
  Cmax: 800 nM
[16]
  half-life: 2.2 h
[17]
  IC50: > 25 µM
[18]
  Cmax: 635 nM
[19]
  Cmax: 8270 nM
[20]
  Vd: 6.9 L/kg
[21]
  IC50: > 50 µM
[22]
  Tmax: 0.33 h
[23]
  IC50: 45 µM
[24]
  IC50: 0.1 µM
Mus musculus [25]
  AUC total: 2.7 µM·h
[26]
  IC50: 24 µM
A2780
  LCK: 3.3
Mus musculus [27]
  Rate: 0.22 nM min-1 (mg of protein)-1
[28]
  IC50: > 45 µM
Homo sapiens [29]
  Activity: 78%
[30]
  bioavailability: 24%
Mus musculus [31]
  Activity: 79%
[32]
  half-life: 1.4 h
Mus musculus [33]
  AUC total: 4.98 µM·h
